Publication PMC8694812 (RSC Advances, 2021)

What was measured:
A549 cells = test: MTT cell viability of A549 cells, dark and 660 nm LED irradiation; type: cell-based, human; conditions: 24 hours, 660 nm 30 min
[1] = ZnPc standard, cited from earlier work
BEAS-2B cells = test: MTT cell viability of BEAS-2B cells, dark and 660 nm LED irradiation; type: cell-based, human; conditions: Eu bis up to 50 μM, Lu bis above 2.5 μM, ZnPc 0.25 μM or above
[2] = DMSO, ZnPc standard; cited from earlier work
[3] = ZnPc standard, cited from earlier work; remark: listed apart in the source

[Zn+2].c1ccc2c(c1)-c1nc-2nc2[n-]c(nc3nc([n-]c4nc(n1)-c1ccccc1-4)-c1ccccc1-3)c1ccccc21 [ZnPc, unsubstituted zinc(II)phthalocyanine]
effect of light irradiation on viability/toxicity (A549 cells): high toxicity in the sub-μM range | Direct ΦΔ in THF ([1]; fraction): 0.530 (ref. [66]) | ΦΔ (%) Direct in THF ([1]; singlet oxygen quantum yield, THF): 53% | effect of light irradiation on viability (BEAS-2B cells): reduced the viability | ΦF (fluorescence quantum yield) [2]: 0.180 (ref. [64]) | Indirect ΦΔ in DMSO ([3]; fraction): 0.670 (ref. [65]) | ΦΔ (%) Indirect in DMSO ([3]; singlet oxygen quantum yield, DMSO): 67%
